Results published in patent US20260242390A1, “TOTAL SYNTHESES OF PORTIMINE A AND ANALOGUES THEREOF AS SMALL MOLECULE MODULATORS OF NMD3” (priority 2023, published 2026).

How the values were obtained:
[1] = tested on: MC38 colon carcinoma; experiment: MC38 Syngeneic Tumor Xenograft Model; assay type: in vivo, mouse; settings: 0.3 or 1.0 mg/kg, i.p.
Method: FIG. 4. Validation of NMD3 as target of Portimine A by Chemo-precipitation (ChP). Portimine A mouse pharmacokinetic properties and fast acting in vitro cell-based target engagement properties based on compound wash-out. (A) Pharmacokinetic studies of mouse intraperitoneal (i.p.) and oral (p.o.) administration for portimine (n=3). […] Impact of PA [0.3 or 1 mg/kg intraperitoneally] on MC38 tumor growth in WT mice (n=6). (C) Kaplan-Myer survival curve of WT MC38 tumor-bearing mice (n=6) after treatment with PA as described in (D). Mice were euthanized when tumor area exceeded 2000 mm^3. Statistical analysis was performed using ANOVA analysis followed by multiple comparisons test, * p≤0.05. Treatment condition: Jurkat (60 M per condition); PA-DA/ePA-DA concentration: 0.5 uM, PA or ePA: 5 uM; Incubate with probe with or without competitors (PA, ePA) for 30 min; UV irradiated for 20 min. (0.5 uM PA-DA add a no-UV condition); Standard pulldown & biotin-enrichment and western blot analysis (Elute condition: 2× sample buffer+500 uM biotin, boil for 20 mins); Primary antibody NMD3 (ProteinTech, 1:150), Actin (BioRad, 1:10000).
FIG. 9. […] (A) Systemic Portimine A in MC38 Syngeneic Tumor Xenograft Model; and (B) Systemic Portimine A in HT-1080 Tumor Xenograft Model. […]

[2] = tested on: HT-1080; experiment: Broad cell line profiling, HT-1080; assay type: cell-based; settings: HT-1080, Human Fibrosarcoma; read-out: PA IC50
Text: • A panel of human and mouse cancer cell types used to assess the breadth of PA activity, including multiple therapy resistant metastatic mesenchymal tumor cell lines and primary glioblastoma patient-derived metastatic stem/tumor initiating cell populations.

## C=CC1=C[C@@H]2[C@@H]3O[C@]4(CC[C@H](O4)C(C)C[C@@H](O)C3=O)CC(O)C3=NCC[C@@]32CC1 (some centres unmarked) [PA, portimine A]
[1]
  anti-tumor activity, MC38 colon carcinoma syngeneic model: Potent anti-tumor activity
[2]
  IC50: 0.83 nM
